Values after ≈ are worked out from the molar mass of the structure shown.
Experiments:
[1] = microbe, parasite or virus in culture; format: functional, Mycobacterium bovis BCG str. Tokyo 172; settings: Mycobacterium tuberculosis variant bovis BCG
Description: (§1) Antibacterial activity against Mycobacterium bovis BCG str. Tokyo 172 by broth dilution method

[2] = tested on: Mycobacterium tuberculosis; experiment: Antituberculosis activity against Mycobacterium tuberculosis H37Rv by broth dilution method; format: functional
Mycobacterium avium [3] = experiment: Antibacterial activity against Mycobacterium avium 724S by broth dilution method; format: functional
Escherichia coli [4] = experiment: Antibacterial activity against Escherichia coli by broth dilution method; format: functional
[5] = tested on: Mycolicibacterium smegmatis; experiment: Antibacterial activity against Mycobacterium smegmatis by broth dilution method; format: functional
Mycobacterium avium [6] = experiment: Antibacterial activity against Mycobacterium avium SmO by broth dilution method; format: functional
Staphylococcus aureus [7] = experiment: Antibacterial activity against Staphylococcus aureus by broth dilution method; format: functional
[8] = Selectivity for Mycobacterium tuberculosis H37Rv over human MRC5 cells; parameters: reference not given here
[9] = Selectivity for Mycobacterium tuberculosis H37Rv over human A549 cells; parameters: reference not given here
[10] = Selectivity for Mycobacterium tuberculosis H37Rv over human THP1 cells; parameters: species or system THP-1; reference not given here
[11] = tested on: Mycobacterium tuberculosis; experiment: Antimycobacterial activity against drug-susceptive Mycobacterium tuberculosis isolate A-3-1 by agar proportion method; format: functional
[12] = tested on: Mycobacterium tuberculosis; experiment: Antimycobacterial activity against drug-susceptive Mycobacterium tuberculosis isolate A-3-6 by agar proportion method; format: functional
[13] = tested on: Mycobacterium tuberculosis; experiment: Antimycobacterial activity against drug-susceptive Mycobacterium tuberculosis isolate A-3-13 by agar proportion method; format: functional
[14] = tested on: Mycobacterium tuberculosis; experiment: Antimycobacterial activity against drug-susceptive Mycobacterium tuberculosis isolate A-1-3 by agar proportion method; format: functional
[15] = tested on: Mycobacterium tuberculosis; experiment: Antimycobacterial activity against drug-susceptive Mycobacterium tuberculosis isolate A-3-17 by agar proportion method; format: functional
[16] = tested on: Mycobacterium tuberculosis; experiment: Antimycobacterial activity against drug-susceptive Mycobacterium tuberculosis isolate A-3-19 by agar proportion method; format: functional
[17] = tested on: Mycobacterium tuberculosis; experiment: Antimycobacterial activity against drug-susceptive Mycobacterium tuberculosis isolate A-3-9 by agar proportion method; format: functional
[18] = tested on: Mycobacterium tuberculosis; experiment: Antimycobacterial activity against drug-susceptive Mycobacterium tuberculosis isolate A-3-15 by agar proportion method; format: functional
[19] = tested on: Mycobacterium tuberculosis; experiment: Antimycobacterial activity against drug-susceptive Mycobacterium tuberculosis isolate A-1-2 by agar proportion method; format: functional
[20] = tested on: Mycobacterium tuberculosis; experiment: Antimycobacterial activity against drug-susceptive Mycobacterium tuberculosis isolate A-3-12 by agar proportion method; format: functional
[21] = tested on: Mycobacterium tuberculosis; experiment: Antimycobacterial activity against drug-susceptive Mycobacterium tuberculosis isolate A-1-1 by agar proportion method; format: functional
[22] = tested on: Mycobacterium tuberculosis; experiment: Antimycobacterial activity against drug-susceptive Mycobacterium tuberculosis isolate A-3-2 by agar proportion method; format: functional
[23] = tested on: Mycobacterium tuberculosis; experiment: Antimycobacterial activity against drug-susceptive Mycobacterium tuberculosis isolate A-3-22 by agar proportion method; format: functional
[24] = tested on: Mycobacterium tuberculosis; experiment: Antimycobacterial activity against drug-susceptive Mycobacterium tuberculosis isolate A-3-20 by agar proportion method; format: functional
[25] = tested on: Mycobacterium tuberculosis; experiment: Antimycobacterial activity against drug-susceptive Mycobacterium tuberculosis isolate A-3-16 by agar proportion method; format: functional
[26] = tested on: Mycobacterium tuberculosis; experiment: Antimycobacterial activity against drug-susceptive Mycobacterium tuberculosis isolate A-3-21 by agar proportion method; format: functional
[27] = tested on: Mycobacterium tuberculosis; experiment: Antimycobacterial activity against drug-susceptive Mycobacterium tuberculosis isolate A-3-11 by agar proportion method; format: functional
[28] = tested on: Mycobacterium tuberculosis; experiment: Antimycobacterial activity against drug-susceptive Mycobacterium tuberculosis isolate A-2-5 by agar proportion method; format: functional
[29] = tested on: Mycobacterium tuberculosis; experiment: Antimycobacterial activity against drug-susceptive Mycobacterium tuberculosis isolate A-3-5 by agar proportion method; format: functional
Staphylococcus aureus [30] = tested on: Staphylococcus aureus
Mycobacterium avium [31] = settings: SmO
[32] = tested on: Mycobacterium tuberculosis; settings: H37Rv
Mycobacterium avium [33] = settings: 724S
[34] = tested on: Mycobacterium bovis BCG str. Tokyo 172
Description: as §1

[35] = tested on: Mycolicibacterium smegmatis
Escherichia coli [36] = tested on: Escherichia coli

Row | Compound | MIC [1] [µg/mL] | MIC [2] [µg/mL] | MIC (Mycobacterium avium [3]) [µg/mL] | MIC (Escherichia coli [4]) [µg/mL] | MIC [5] [µg/mL] | MIC (Mycobacterium avium [6]) [µg/mL] | MIC (Staphylococcus aureus [7]) [µg/mL] | Ratio [8] | Ratio [9] | Ratio [10] | also measured
1 | NC[C@H]1O[C@H](O[C@H]2[C@H](O)[C@@H](O[C@H]3O[C@H](CO)[C@@H](O)[C@H](N)[C@H]3O)[C@H](N)C[C@@H]2N)[C@H](O)[C@@H](O)[C@@H]1O [KANAMYCIN] | 0.3 (≈ 0.619 µM) | 1.56 (≈ 3.22 µM) | > 100 | 12.5 (≈ 25.8 µM) | 3.13 (≈ 6.46 µM) | 1.56 (≈ 3.22 µM) | 12.5 (≈ 25.8 µM) | – | – | – | –
2 | CNC [DIMETHYLAMINE] | > 100 | > 100 | – | – | > 100 | – | – | – | – | – | –
3 | CC(=O)N[C@@H]1[C@@H](O)[C@@H](O)[C@@H](CO)O[C@H]1SC(=S)N(C)C | 25 (≈ 77.1 µM) | 12.5 (≈ 38.5 µM) | > 100 | > 100 | > 100 | > 100 | > 100 | – | – | – | –
4 | NCC[C@H](O)C(=O)N[C@@H]1C[C@H](N)[C@@H](O[C@H]2O[C@H](CN)[C@@H](O)[C@H](O)[C@H]2O)[C@H](O)[C@H]1O[C@H]1O[C@H](CO)[C@@H](O)[C@H](N)[C@H]1O [AMIKACIN] | 0.78 (≈ 1.33 µM) | 1.75 (≈ 2.99 µM) | > 100 | 50 (≈ 85.4 µM) | 1.25 (≈ 2.13 µM) | 1.56 (≈ 2.66 µM) | 100 (≈ 171 µM) | – | – | – | –
5 | CC[C@@H](CO)NCCN[C@@H](CC)CO [ETHAMBUTOL] | 1.5 (≈ 7.34 µM) | 2.5 (≈ 12.2 µM) | 3.13 (≈ 15.3 µM) | > 100 | 12.5 (≈ 61.2 µM) | 1.56 (≈ 7.64 µM) | > 100 | 111 | 1434 | 916 | –
6 | CNC.Cl [DIMETHYLAMINE HCL] | > 100 | > 100 | – | – | > 100 | – | – | – | – | – | –
7 | NNC(=O)c1ccncc1 [ISONIAZID] | 0.04 (≈ 0.292 µM) | 0.04 (≈ 0.292 µM) | 50 (≈ 365 µM) | > 100 | 6.25 (≈ 45.6 µM) | 3.13 (≈ 22.8 µM) | > 100 | 7325 | 77277 | 53613 | –
8 | Nc1ccc(C(=O)O)c(O)c1 [AMINOSALICYLIC ACID] | 50 (≈ 327 µM) | 0.16 (≈ 1.04 µM) | 100 (≈ 653 µM) | > 100 | 1000 (≈ 6530 µM) | 100 (≈ 653 µM) | > 100 | – | – | – | –
9 | CC(=O)N[C@@H]1[C@@H](O)[C@H](O)[C@@H](CO)O[C@H]1SC(=S)N(C)C | 31.3 (≈ 96.5 µM) | 25 (≈ 77.1 µM) | > 100 | > 100 | > 100 | > 100 | > 100 | 28 | 188 | 242 | MIC [11]: 6.25 µg/mL (≈ 19.3 µM); MIC [12]: 6.25 µg/mL (≈ 19.3 µM); MIC [13]: 6.25 µg/mL (≈ 19.3 µM); MIC [14]: 6.25 µg/mL (≈ 19.3 µM); MIC [15]: 12.5 µg/mL (≈ 38.5 µM); MIC [16]: 6.25 µg/mL (≈ 19.3 µM); MIC [17]: 6.25 µg/mL (≈ 19.3 µM); MIC [18]: 6.25 µg/mL (≈ 19.3 µM); MIC [19]: 6.25 µg/mL (≈ 19.3 µM); MIC [20]: 6.25 µg/mL (≈ 19.3 µM); MIC [21]: 6.25 µg/mL (≈ 19.3 µM); MIC [22]: 6.25 µg/mL (≈ 19.3 µM); MIC [23]: 6.25 µg/mL (≈ 19.3 µM); MIC [24]: 6.25 µg/mL (≈ 19.3 µM); MIC [25]: 6.25 µg/mL (≈ 19.3 µM); MIC [26]: 6.25 µg/mL (≈ 19.3 µM); MIC [27]: 6.25 µg/mL (≈ 19.3 µM); MIC [28]: 6.25 µg/mL (≈ 19.3 µM); MIC [29]: 6.25 µg/mL (≈ 19.3 µM)
10 | CN(C)C(=S)[S-].[Na+] [SODIUM DIMETHYLCARBAMODITHIOATE] | 0.78 | 0.78 | – | > 100 | > 100 | – | > 100 | 14 | 318 | 88 | –
11 | CO[C@H]1/C=C/O[C@@]2(C)Oc3c(C)c(O)c4c(O)c(c(/C=N/N5CCN(C)CC5)c(O)c4c3C2=O)NC(=O)/C(C)=C\C=C\[C@H](C)[C@H](O)[C@@H](C)[C@@H](O)[C@@H](C)[C@H](OC(C)=O)[C@@H]1C [RIFAMPIN] | 0.004 (≈ 0.00486 µM) | 0.004 (≈ 0.00486 µM) | < 0.05 | 50 (≈ 60.8 µM) | 1.56 (≈ 1.9 µM) | 0.004 (≈ 0.00486 µM) | 0.002 (≈ 0.00243 µM) | 16250 | 44510 | 16256 | –
12 | CC(=O)N[C@H]1[C@@H](O)[C@H](O)[C@@H](CO)O[C@@H]1SC(=S)N(C)C | > 100 | > 100 | > 100 | > 100 | > 100 | > 100 | > 100 | – | – | – | –
13 | CC(=O)N[C@H]1[C@H](OC(C)=O)O[C@H](COC(C)=O)[C@@H](OC(C)=O)[C@@H]1OC(C)=O | > 100 | > 100 | – | – | > 100 | – | – | – | – | – | –
14 | CC(=O)N[C@@H]1[C@@H](O)[C@H](O)[C@@H](CSC(=S)N(C)C)O[C@H]1SC(=S)N(C)C | > 100 | 25 (≈ 58.5 µM) | > 100 | > 100 | > 100 | > 100 | > 100 | – | – | – | –
15 | CN[C@@H]1[C@H](O[C@H]2[C@H](O[C@H]3[C@H](O)[C@@H](O)[C@H](N=C(N)N)[C@@H](O)[C@@H]3N=C(N)N)O[C@@H](C)[C@]2(O)C=O)O[C@@H](CO)[C@H](O)[C@H]1O [STREPTOMYCIN] | 0.2 (≈ 0.344 µM) | 0.39 (≈ 0.671 µM) | 0.39 (≈ 0.671 µM) | 50 (≈ 86 µM) | 0.39 (≈ 0.671 µM) | 0.39 (≈ 0.671 µM) | 50 (≈ 86 µM) | 4282 | 32154 | 18367 | –
16 | GENTAMICIN | – | – | – | – | – | – | – | – | – | – | MIC (Staphylococcus aureus [30]): 25 µg/mL; MIC (Mycobacterium avium [31]): 1.56 µg/mL; MIC [32]: 3.13 µg/mL; MIC (Mycobacterium avium [33]): 25 µg/mL; MIC [34]: 1.56 µg/mL; MIC [35]: 1.56 µg/mL; MIC (Escherichia coli [36]): 6.25 µg/mL
17 | CC(=O)N[C@@H]1[C@@H](OC(C)=O)[C@H](OC(C)=O)[C@@H](COC(C)=O)O[C@H]1SC(=S)N(C)C | > 100 | > 100 | > 100 | > 100 | > 100 | > 100 | > 100 | – | – | – | –

Source: ChEMBL document CHEMBL1156113, “Synthesis of new sugar derivatives and evaluation of their antibacterial activities against Mycobacterium tuberculosis” (Bioorg Med Chem Lett, 2009)
